Read-outs that look alike come from different tables or passages of the source.
What was measured:
Assay type in all cases: cell-based
[1] = tested on: HIV-1 recombinant strain encoding reverse transcriptase mutation K103N; experiment: Resistance profile against HIV-1 RT mutants in MT-2 cells, K103N; conditions: ratio of mean EC50 mutant/WT virus
Experimental: (§1) Compounds were tested for antiviral activity against a panel of NNRTI resistant viruses. A panel of 8 clonal site-directed mutant viruses representing the major resistance development pathways against rilpivirine (“RPV”), efavirenz (“EFV”), and nevirapine (“NVP”), containing both single and double mutations within HIV-1 reverse transcriptase was employed. Further details and background can be found in Janssen et al. J. Med. Chem, 2005, 48, 1901-1909; Das et al., Proc. Nat. Acad. Sci., 2008, vol., 105, no. 5, 1466-1471; and Kuroda et al., Nature Chemistry, 2013, DOI: 10.1038/NCHEM. 1559. […] HIV-1 recombinant strains encoding reverse transcriptase mutations K103N, Y181C, Y188L, G190A, K103N/Y181C, L1001/Y181C, E138K or E138KIM 184V were constructed by site-directed mutagenesis. Wild-type and mutant viruses were prepared by transfecting infectious proviral HXB2-based cDNA clones into MT-2 cells and harvesting the cell supernatants. MT-2 cells were infected with wild-type and mutant HIV-1 strains at a multiplicity of infection (MOI) of 0.005 by gentle mixing for 3 hours at 37° C. and then added at a density of 16,667 cells per well in 50 μL complete RPMI cell culture media (containing 10% fetal bovine serum (FBS) and 10% penicillin-streptomycin) to 96-well plates containing 50 μL of a 3-fold serial dilution of test compounds in RPMI medium. After 5 days of incubation at 37° C. in a humidified incubator in the presence of 5% CO2. 100 μL of Cell Titer-Glo™ Reagent (Promega Biosciences, Inc., Madison, Wis.) was added to each well and the relative light units (RLU) measured on an Envision plate reader. […] The EC50 value was defined as the compound concentration inducing a 50% decrease in virus replication. Data analysis for the antiviral activity observed in MT-2 cells was performed using XL-Fit™ software (IDBS, Guildford, Surrey, UK) to calculate EC50 from an 8-point dose-response curve using the following equation:
(§2) [formula] where y=virus inhibition, x=drug concentration, M=maximum inhibition, H=minimum inhibition and n=Hill coefficient, EC50 values (mean±standard deviation) were calculated from at least three independent experiments performed in triplicate. The level of resistance was calculated as a ratio of the mean EC50 for each mutant/WT virus. Results are disclosed in FIG. 1 and in Tables 3 and 4 below.

[2] = tested on: HIV-1 reverse transcriptase mutant K103N; experiment: High throughput cytopathic effect assay in MT-4 cells, K103N mutant; conditions: for EC50: Human immunodeficiency virus 1, MT4, 120 h, read-out: MT4 EC50 (nM) against K103N; for FC against mutant K103N: fold change of MT4 EC50 versus w.t. assay 2
Procedure, shortened: (§3)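 MT-4 cells infected 1 h at 37 °C at MOI 0.0005, then plated onto ten-point half-log compound dilutions and incubated 5 days. Cell viability read by CellTiter-Glo luminescence, normalized to AZT and DMSO controls as % CPE protection; EC50 from four-parameter fit.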

[3] = tested on: HIV-1 recombinant strain encoding reverse transcriptase mutation G190A; experiment: Resistance profile against HIV-1 RT mutants in MT-2 cells, G190A; conditions: ratio of mean EC50 mutant/WT virus
Experimental: as §1, §2

[4] = tested on: HIV-1 recombinant strain encoding reverse transcriptase mutation Y181C; experiment: Resistance profile against HIV-1 RT mutants in MT-2 cells, Y181C; conditions: ratio of mean EC50 mutant/WT virus
Experimental: as §1, §2

[5] = tested on: HIV-1 recombinant strain encoding reverse transcriptase mutation K103N/Y181C; experiment: Resistance profile against HIV-1 RT mutants in MT-2 cells, K103N/Y181C; conditions: ratio of mean EC50 mutant/WT virus
Experimental: as §1, §2

hERG channels = molecular target: T1, hERG channels (Homo sapiens, UniProt Q12809); experiment: hERG assay, whole cell recordings in CHO cell line stably expressing hERG channels; conditions: CHO cells, whole cell patch clamp; greater than values indicate the maximum achievable concentration in the assay
T1 construct: host or cells: CHO cell line stably expressing hERG
T1 sequence (Q12809 whole entry): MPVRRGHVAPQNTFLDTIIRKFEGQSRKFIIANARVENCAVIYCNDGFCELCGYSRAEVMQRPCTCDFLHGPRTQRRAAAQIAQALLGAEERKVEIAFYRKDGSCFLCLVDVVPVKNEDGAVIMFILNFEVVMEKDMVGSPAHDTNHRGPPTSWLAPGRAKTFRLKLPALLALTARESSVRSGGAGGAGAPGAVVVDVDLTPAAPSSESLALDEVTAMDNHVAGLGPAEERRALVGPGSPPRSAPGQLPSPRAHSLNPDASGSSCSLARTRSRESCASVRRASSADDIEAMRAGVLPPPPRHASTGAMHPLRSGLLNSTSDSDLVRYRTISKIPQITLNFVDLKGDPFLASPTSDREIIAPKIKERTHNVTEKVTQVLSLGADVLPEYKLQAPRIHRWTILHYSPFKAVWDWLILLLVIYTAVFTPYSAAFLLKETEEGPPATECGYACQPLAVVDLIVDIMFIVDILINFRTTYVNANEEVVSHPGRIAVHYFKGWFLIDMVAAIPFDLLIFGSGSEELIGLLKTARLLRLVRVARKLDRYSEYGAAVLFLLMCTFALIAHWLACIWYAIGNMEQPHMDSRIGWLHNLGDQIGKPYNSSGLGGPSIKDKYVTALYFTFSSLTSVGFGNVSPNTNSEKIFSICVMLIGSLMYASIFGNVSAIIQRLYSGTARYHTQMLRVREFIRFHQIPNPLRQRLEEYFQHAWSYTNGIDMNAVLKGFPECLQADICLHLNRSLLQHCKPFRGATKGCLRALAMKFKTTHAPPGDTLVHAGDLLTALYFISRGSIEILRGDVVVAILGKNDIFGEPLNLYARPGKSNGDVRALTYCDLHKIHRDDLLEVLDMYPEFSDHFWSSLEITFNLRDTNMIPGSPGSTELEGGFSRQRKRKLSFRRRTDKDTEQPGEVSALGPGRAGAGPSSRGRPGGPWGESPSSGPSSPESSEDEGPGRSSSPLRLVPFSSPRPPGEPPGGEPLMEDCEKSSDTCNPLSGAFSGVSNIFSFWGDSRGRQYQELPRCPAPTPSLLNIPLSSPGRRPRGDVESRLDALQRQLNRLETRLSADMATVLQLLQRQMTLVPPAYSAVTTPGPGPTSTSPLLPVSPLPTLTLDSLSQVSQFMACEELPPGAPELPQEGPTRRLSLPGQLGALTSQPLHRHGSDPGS
Experimental: AVIVA's CHO cell line, which stably expresses hERG channels, was used for the study. Cells were cultured in DMEM/F12 containing 10% FBS, 1% penicillin/streptomycin and 500 μg/ml G418. Before testing, cells were harvested using Accumax (Innovative Cell Technologies).
External Solution: 2 mM CaCl2; 2 mM MgCl2; 4 mM KCl; 150 mM NaCl; 10 mM Glucose; 10 mM HEPES; 305-315 mOsm; pH 7.4 (adjusted with 5M NaOH.)
Internal Solution: 140 mM KCl; 10 mM MgCl2; 6 mM EGTA; 5 mM HEPES-Na; 5 mM ATP-Mg; 295-305 mOsm; pH 7.25 (adjusted with 1M KOH).
Whole cell recordings were performed using PX 7000A (Axon Instruments) with AVIVA's SealChip™ technology. Cells were voltage clamped at a holding potential of −80 mV. The hERG current was then activated by a depolarizing step to −50 mV for 300 ms. This first step at −50 mV was used as a baseline for measuring peak amplitude of the tail current. Next, a voltage step to +20 mV was applied for 5 s to activate the channels. Finally, a step back to −50 mV for 5 s removed activation and the deactivating tail current was recorded.
All test articles were prepared from 10 mM DMSO stock solutions. Solutions were mixed by sonication for 20 min, followed by vigorous vortexing. Prior to testing, compounds were diluted to test concentrations in glass vials using External Solution. Dilutions were prepared no longer than 20 min prior to use.
After achieving whole cell configuration, cells were monitored for 90 s to assess stability and then washed with External Solution for 66 s. The voltage protocol was then applied to the cells every 12 s throughout the procedure. Only stable cells with recording parameters above threshold were allowed to enter the drug addition procedure.
External solution containing 0.1% DMSO (vehicle) was applied to the cells to establish a baseline. After allowing the current to stabilize for 3 to 10 min, test articles were applied. Test article solutions were added to cells in 4 separate additions. Cells were kept in test solution until effect of the test article reached steady state, to a maximum of 12 min. Next, 1 μM cisapride (positive control) was added. Finally, washout with External Solution was performed until the recovery current reached steady state.
Data analysis was performed using DataXpress (Axon Instruments), Clampfit (Axon Instruments) and Origin (OriginLab Corporation) software. The greater than values in Table 5 indicate the maximum achievable concentration in the assay (e.g., compounds achieving their solubility limit).

[6] = tested on: HIV-1 reverse transcriptase mutant Y181C; experiment: High throughput cytopathic effect assay in MT-4 cells, Y181C mutant; conditions: for EC50: Human immunodeficiency virus 1, MT4, 120 h, read-out: MT4 EC50 (nM) against Y181C; for FC against mutant Y181C: fold change of MT4 EC50 versus w.t. assay 2
Procedure, shortened: as §3

[7] = tested on: HIV-1 recombinant strain encoding reverse transcriptase mutation L100I/Y181C; experiment: Resistance profile against HIV-1 RT mutants in MT-2 cells, L100I/Y181C; conditions: ratio of mean EC50 mutant/WT virus
Experimental: as §1, §2

HIV-1 HBX2 (wild type) = experiment: High throughput cytopathic effect assay in MT-4 cells, wild type HIV-1
Procedure, shortened: as §3

[8] = tested on: HIV-1 recombinant strain encoding reverse transcriptase mutation Y188L; experiment: Resistance profile against HIV-1 RT mutants in MT-2 cells, Y188L; conditions: ratio of mean EC50 mutant/WT virus
Experimental: as §1, §2

[9] = tested on: HIV-1 recombinant strain encoding reverse transcriptase mutation E138K/M184V; experiment: Resistance profile against HIV-1 RT mutants in MT-2 cells, E138K/M184V; conditions: ratio of mean EC50 mutant/WT virus
Experimental: Compounds were tested for antiviral activity against a panel of NNRTI resistant viruses. A panel of 8 clonal site-directed mutant viruses representing the major resistance development pathways against rilpivirine (“RPV”), efavirenz (“EFV”), and nevirapine (“NVP”), containing both single and double mutations within HIV-1 reverse transcriptase was employed. Further details and background can be found in Janssen et al. J. Med. Chem, 2005, 48, 1901-1909; Das et al., Proc. Nat. Acad. Sci., 2008, vol., 105, no. 5, 1466-1471; and Kuroda et al., Nature Chemistry, 2013, DOI: 10.1038/NCHEM. 1559. […] HIV-1 recombinant strains encoding reverse transcriptase mutations K103N, Y181C, Y188L, G190A, K103N/Y181C, L1001/Y181C, E138K or E138KIM 184V were constructed by site-directed mutagenesis. Wild-type and mutant viruses were prepared by transfecting infectious proviral HXB2-based cDNA clones into MT-2 cells and harvesting the cell supernatants. MT-2 cells were infected with wild-type and mutant HIV-1 strains at a multiplicity of infection (MOI) of 0.005 by gentle mixing for 3 hours at 37° C. and then added at a density of 16,667 cells per well in 50 μL complete RPMI cell culture media (containing 10% fetal bovine serum (FBS) and 10% penicillin-streptomycin) to 96-well plates containing 50 μL of a 3-fold serial dilution of test compounds in RPMI medium. After 5 days of incubation at 37° C. in a humidified incubator in the presence of 5% CO2. 100 μL of Cell Titer-Glo™ Reagent (Promega Biosciences, Inc., Madison, Wis.) was added to each well and the relative light units (RLU) measured on an Envision plate reader. […] The EC50 value was defined as the compound concentration inducing a 50% decrease in virus replication. […]
as §2, with “Results are disclosed in FIG. 1 and in Tables 3 and 4 below.” left out

[10] = Human immunodeficiency virus 1, MT4, 120 h, MT-4 cells, 5 days, cytopathic effect, Cell TiterGlo, read-out: MT4 EC50 (nM) against w.t.
[11] = Human immunodeficiency virus 1, MT4, read-out: MT4 EC50 (nM) against w.t. assay 2

SMILES | Biology resistance panel-low throughput fold change (FC) K103N [1] | EC50 [2] [nM] | FC against mutant K103N [2] | Biology resistance panel-low throughput fold change (FC) G190A [3] | Biology resistance panel-low throughput fold change (FC) Y181C [4] | Biology resistance panel-low throughput fold change (FC) K103N/Y181C [5] | hERG (hERG channels) [µM] | EC50 [6] [nM] | FC against mutant Y181C [6] | Biology resistance panel-low throughput fold change (FC) L100I/Y181C [7] | EC50 (HIV-1 HBX2 (wild type); [10]) [nM] | EC50 (HIV-1 HBX2 (wild type); [11]) [nM] | Biology resistance panel-low throughput fold change (FC) Y188L [8] | Biology resistance panel-low throughput fold change (FC) E138K/M184V [9]
Cc1cc(/C=C/C#N)cc(C)c1-c1cccc2c(N)nc(Nc3ccc(C#N)cc3)nc12 [Compound 2, (E)-4-((4-Amino-8-(4-(2-cyanovinyl)-2,6-dimethylphenyl)quinazolin-2-yl)amino)benzonitrile] | 0.9 | 4 | 1.1 | 1.6 | 4.0 | 4.1 | >1 | 10.9 | 3.0 | 1.6 | 3.7 | 3.6 | 10.0 | 5.0
Cc1cc(/C=C/C#N)cc(C)c1-c1cccc2c(=O)[nH]c(Nc3ccc(C#N)cn3)nc12 [Compound 34, (E)-6-((8-(4-(2-Cyanovinyl)-2,6-dimethylphenyl)-4-oxo-3,4-dihydroquinazolin-2-yl)amino)nicotinonitrile] | 1.4 | 3.2 | 1.0 | – | 3.4 | 12.4 | >3 | 11.3 | 3.7 | 1.7 | 2.4 | 3 | 18.7 | 4.2
O=C1Nc2ccc(Cl)cc2[C@@](C#CC2CC2)(C(F)(F)F)O1 [Efavirenz, reference compound] | 48.1 | 46.4 | 28.9 | 14.8 | 3.6 | 83.5 | – | 3.8 | 2.3 | >200 | 1.3 | 1.6 | 132.5 | –
Cc1cc(/C=C/C#N)cc(C)c1Nc1ccnc(Nc2ccc(C#N)cc2)n1 [Rilpivirine, reference compound] | 1.0 | 1.5 | 1.2 | 0.8 | 4.6 | 7.7 | 0.5 | 3.8 | 3.1 | 18.1 | 0.9 | 1.3 | 22.8 | 3.0

From patent US10548898B2, “Quinazoline compounds” (Gilead Sciences, Inc., priority 2014, dated 2020)
